The source of these data is patent US8273774B2, “Phenoxypyridinylamide compounds” (AstraZeneca AB, priority 2008, dated 2012).

Where a name gives a salt, the structure may show the parent alone.

recombinant Human Phosphodiesterase B2 (PDE4B2), sequence (Q07343 1-564 isoform Q07343-2): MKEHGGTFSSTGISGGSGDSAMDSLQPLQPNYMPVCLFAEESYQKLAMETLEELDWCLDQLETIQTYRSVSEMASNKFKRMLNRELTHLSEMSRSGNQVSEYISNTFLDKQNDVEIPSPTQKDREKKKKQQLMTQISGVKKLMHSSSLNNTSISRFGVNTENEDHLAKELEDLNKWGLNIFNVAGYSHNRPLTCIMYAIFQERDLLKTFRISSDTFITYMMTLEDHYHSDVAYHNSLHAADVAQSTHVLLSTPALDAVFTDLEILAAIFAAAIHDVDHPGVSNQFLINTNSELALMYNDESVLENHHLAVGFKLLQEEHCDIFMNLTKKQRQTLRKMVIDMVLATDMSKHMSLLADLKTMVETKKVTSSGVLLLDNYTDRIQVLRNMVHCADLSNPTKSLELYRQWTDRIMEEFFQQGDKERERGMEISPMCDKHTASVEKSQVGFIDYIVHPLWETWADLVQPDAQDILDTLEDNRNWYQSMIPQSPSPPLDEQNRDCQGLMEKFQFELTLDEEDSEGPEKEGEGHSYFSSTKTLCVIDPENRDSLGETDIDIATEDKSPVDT

The assay has as its target recombinant Human Phosphodiesterase B2 (PDE4B2) (Homo sapiens, UniProt Q07343). Briefly: Human Phosphodiesterase B2 Radiometric Assay. Format: biochemical. Conditions: 0.1 μg/mL recombinant PDE4B2; preincubated at 30 C for 30 min; [3H]cyclic AMP 8 nM, stopped after 20 min; yttrium silicate SPA beads; read-out: PDE4B2 pIC50 (converted). The essentials: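 SPA read-out: product 5′AMP binds yttrium silicate beads (added with 18 mM ZnSO4 after 20 min) in preference to [3H]cAMP substrate, given at 8 nM final.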
Turning to `O=C(N[C@H]1CC[C@@H](NC(=O)c2cc(F)cnc2Oc2cccc(-c3ccc(CCN4CCNCC4)cc3)c2)CC1)c1cn2cc(F)ccc2n1` [Example 117, 6-fluoro-N-((1s,4s)-4-(5-fluoro-2-(4′-(2-(piperazin-1-yl)ethyl)biphenyl-3-yloxy)nicotinamido)cyclohexyl)imidazo[1,2-a]pyridine-2-carboxamide], the IC50 is 0.1 nM.

On to `Cc1cc(C(=O)N[C@H]2CC[C@@H](NC(=O)c3cc(F)cnc3Oc3cccc(-c4ccc(CN(C)C)cc4CN4CCOCC4)c3)CC2)nn1C` [Example 120, N-((1s,4s)-4-(1,5-dimethyl-1H-pyrazole-3-carboxamido)cyclohexyl)-2-(4′-((dimethylamino)methyl)-2′-(morpholinomethyl)biphenyl-3-yloxy)-5-fluoronicotinamide], for which the IC50 was 0.0501 nM. As for `Cc1cccc2nc(C(=O)N[C@H]3CC[C@@H](NC(=O)c4cc(F)cnc4Oc4cccc(-c5ccc(CN6C[C@@H](C)N[C@@H](C)C6)cc5CN5CCOC[C@@H]5C)c4)CC3)cn12` [Example 175, N-((1s,4s)-4-(2-(4′-(((3S,5R)-3,5-Dimethylpiperazin-1-yl)methyl)-2′-(((S)-3-methylmorpholino)methyl)biphenyl-3-yloxy)-5-fluoronicotinamido)cyclohexyl)-5-methylimidazo[1,2-a]pyridine-2-carboxamide], the IC50 was 0.02 nM.

For the compound `Cc1cc(C(=O)N[C@H]2CC[C@@H](NC(=O)c3cc(F)cnc3Oc3cccc(-c4ccc(O)c(CN5CCN(C(C)C)CC5)c4)c3)CC2)nn1C` [Example 77, N-((1s,4s)-4-(1,5-dimethyl-1H-pyrazole-3-carboxamido)cyclohexyl)-5-fluoro-2-(4′-hydroxy-3′-((4-isopropylpiperazin-1-yl)methyl)biphenyl-3-yloxy)nicotinamide], the IC50 is 0.0631 nM.

For `Cc1cc(C(=O)N[C@H]2CC[C@@H](NC(=O)c3cc(F)cnc3Oc3cccc(-c4ccc(CCN5C[C@@H](C)N[C@@H](C)C5)cc4)c3)CC2)nn1C` [Example 82, N-((1s,4s)-4-(1,5-dimethyl-1H-pyrazole-3-carboxamido)cyclohexyl)-2-(4′-(2-((3S,5R)-3,5-dimethylpiperazin-1-yl)ethyl)biphenyl-3-yloxy)-5-fluoronicotinamide], the IC50 was 0.02 nM. The value for `O=C(N[C@H]1CC[C@@H](NC(=O)c2cc(F)cnc2Oc2cccc(-c3ccc(CCCN4CCNCC4)cc3)c2)CC1)c1cc(C2CC2)n[nH]1` [Example 173, N-((1s,4s)-4-(3-Cyclopropyl-1H-pyrazole-5-carboxamido)cyclohexyl)-5-fluoro-2-(4′-(3-(piperazin-1-yl)propyl)biphenyl-3-yloxy)nicotinamide] was 0.0398 nM. The value for `Cc1cc(C(=O)N[C@H]2CC[C@@H](NC(=O)c3cc(F)cnc3Oc3cccc(-c4ccc(CCCN5CCNCC5)cc4)c3)CC2)n[nH]1` [Example 157, 5-Fluoro-N-((1s,4s)-4-(5-methyl-1H-pyrazole-3-carboxamido)cyclohexyl)-2-(4′-(3-(piperazin-1-yl)propyl)biphenyl-3-yloxy)nicotinamide] was 0.0794 nM; that for `CC(=O)N1CCN(Cc2cc(O)ccc2-c2cccc(Oc3ncc(F)cc3C(=O)N[C@H]3CC[C@@H](NC(=O)c4csc(C)n4)CC3)c2)CC1` [Example 29, N-((1s,4s)-4-(2-(2′-((4-acetylpiperazin-1-yl)methyl)-4′-hydroxybiphenyl-3-yloxy)-5-fluoronicotinamido)cyclohexyl)-2-methylthiazole-4-carboxamide] was 0.0398 nM. The value for `O=C(N[C@H]1CC[C@@H](NC(=O)c2cc(F)cnc2Oc2cccc(-c3ccc(CCCN4CCNCC4)cc3)c2)CC1)c1cc2ccccn2n1` [Example 132, N-((1s,4s)-4-(5-fluoro-2-(4′-(3-(piperazin-1-yl)propyl)biphenyl-3-yloxy)nicotinamido)cyclohexyl)pyrazolo[1,5-a]pyridine-2-carboxamide] was 0.0398 nM; that for `C[C@@H]1CN(Cc2ccc(-c3cccc(Oc4ncc(F)cc4C(=O)N[C@H]4CC[C@@H](NC(=O)c5cc6n(n5)CCCC6)CC4)c3)c(CN3CCSCC3)c2)C[C@H](C)N1` [Example 188, N-((1s,4s)-4-(2-(4′-(((3S,5R)-3,5-dimethylpiperazin-1-yl)methyl)-2′-(thiomorpholinomethyl)biphenyl-3-yloxy)-5-fluoronicotinamido)cyclohexyl)-4,5,6,7-tetrahydropyrazolo[1,5-a]pyridine-2-carboxamide] was 0.02 nM. Take `O=C(N[C@H]1CC[C@@H](NC(=O)c2cc(F)cnc2Oc2cccc(-c3ccc(O)cc3CN3CCOCC3)c2)CC1)c1cccc(O)n1` [Example 40, N-((1s,4s)-4-(5-fluoro-2-(4′-hydroxy-2′-(morpholinomethyl)biphenyl-3-yloxy)nicotinamido)cyclohexyl)-6-hydroxypicolinamide]: the IC50 was 0.794 nM. Consider `Cc1nc(C(=O)N[C@H]2CC[C@@H](NC(=O)c3cc(F)cnc3Oc3cccc(-c4ccc(CN5C[C@@H](C)N[C@@H](C)C5)cc4CN4CCSCC4)c3)CC2)cs1` [Example 189, N-((1s,4s)-4-(2-(4′-(((3S,5R)-3,5-dimethylpiperazin-1-yl)methyl)-2′-(thiomorpholinomethyl)biphenyl-3-yloxy)-5-fluoronicotinamido)cyclohexyl)-2-methylthiazole-4-carboxamide], for which the IC50 was 0.0158 nM.

As to `Cc1cc(C(=O)N[C@H]2CC[C@@H](NC(=O)c3cc(F)cnc3Oc3cccc(-c4ccc(CCN5CCN(C)CC5)cc4)c3)CC2)nn1C` [Example 167, N-((1s,4s)-4-(1,5-Dimethyl-1H-pyrazole-3-carboxamido)cyclohexyl)-5-fluoro-2-(4′-(2-(4-methylpiperazin-1-yl)ethyl)biphenyl-3-yloxy)nicotinamide], the IC50 was 0.0501 nM. `Cc1nc(C(=O)N[C@H]2CC[C@@H](NC(=O)c3cc(F)cnc3Oc3cccc(-c4ccc(O)cc4CN(C)C)c3)CC2)cs1` [Example 9, N-((1s,4s)-4-(2-(2′-((dimethylamino)methyl)-4′-hydroxybiphenyl-3-yloxy)-5-fluoronicotinamido)cyclohexyl)-2-methylthiazole-4-carboxamide]: the IC50 was 0.0316 nM. For `C[C@@H]1CN(Cc2ccc(-c3cccc(Oc4ncc(F)cc4C(=O)N[C@H]4CC[C@@H](NC(=O)c5csc(CO)n5)CC4)c3)cc2)C[C@H](C)N1` [Example 70, N-((1s,4s)-4-(2-(4′-(((3S,5R)-3,5-dimethylpiperazin-1-yl)methyl)biphenyl-3-yloxy)-5-fluoronicotinamido)cyclohexyl)-2-(hydroxymethyl)thiazole-4-carboxamide], the IC50 is 0.0794 nM. In the case of `Cc1cc(C(=O)N[C@H]2CC[C@@H](NC(=O)c3cc(F)cnc3Oc3cccc(-c4cccc(CCCN5C[C@@H](C)N[C@@H](C)C5)c4)c3)CC2)nn1C` [Example 126, N-((1s,4s)-4-(1,5-dimethyl-1H-pyrazole-3-carboxamido)cyclohexyl)-2-(3′-(3-((3S,5R)-3,5-dimethylpiperazin-1-yl)propyl)biphenyl-3-yloxy)-5-fluoronicotinamide], the IC50 is 0.0501 nM.

Turning to `Cc1cccc2nc(C(=O)N[C@H]3CC[C@@H](NC(=O)c4cc(F)cnc4Oc4cccc(-c5ccc(CN6CCCN(C)CC6)cc5)c4)CC3)cn12` [Example 64, N-((1s,4s)-4-(5-fluoro-2-(4′-((4-methyl-1,4-diazepan-1-yl)methyl)biphenyl-3-yloxy)nicotinamido)cyclohexyl)-5-methylimidazo[1,2-a]pyridine-2-carboxamide], the IC50 was 0.126 nM.

With `C[C@@H]1CN(Cc2ccc(-c3cccc(Oc4ncc(F)cc4C(=O)N[C@H]4CC[C@@H](NC(=O)c5ccc6ccccc6n5)CC4)c3)c(CN3CCOCC3)c2)C[C@H](C)N1` [Example 147, N-((1s,4s)-4-(2-(4′-(((3S,5R)-3,5-dimethylpiperazin-1-yl)methyl)-2′-(morpholinomethyl)biphenyl-3-yloxy)-5-fluoronicotinamido)cyclohexyl)quinoline-2-carboxamide], the IC50 was 0.0501 nM. The result for `C[C@@H]1CN(CCCc2ccc(-c3cccc(Oc4ncc(F)cc4C(=O)N[C@H]4CC[C@@H](NC(=O)c5cc6n(n5)CCCO6)CC4)c3)cc2)C[C@H](C)N1` [Example 168, N-((1s,4s)-4-(2-(4′-(3-((3S,5R)-3,5-Dimethylpiperazin-1-yl)propyl)biphenyl-3-yloxy)-5-fluoronicotinamido)cyclohexyl)-6,7-dihydro-5H-pyrazolo[5,1-b][1,3]oxazine-2-carboxamide] reads 0.0501 nM. The value for `Cc1cc(CN(Cc2cc(C)n(C)n2)[C@H]2CC[C@@H](NC(=O)c3cc(F)cnc3Oc3cccc(-c4ccc(O)cc4CN4CCOCC4)c3)CC2)nn1C` [Example 4, N-((1s,4s)-4-(bis((1,5-dimethyl-1H-pyrazol-3-yl)methyl)amino)cyclohexyl)-5-fluoro-2-(4′-hydroxy-2′-(morpholinomethyl)biphenyl-3-yloxy)nicotinamide trifluoroacetate] was 63.1 nM. For `CN(C)Cc1cc(O)ccc1-c1cccc(Oc2ncc(F)cc2C(=O)N[C@H]2CC[C@@H](NC(=O)c3nc4ccccc4s3)CC2)c1` [Example 44, N-((1s,4s)-4-(2-(2′-((dimethylamino)methyl)-4′-hydroxybiphenyl-3-yloxy)-5-fluoronicotinamido)cyclohexyl)benzo[d]thiazole-2-carboxamide], the IC50 is 0.1 nM.
